Test results from paper PMC9856044 (Biomolecules, 2023).

Assays:
[1] = test system: Tel22 (DNA, G4) AGGGTTAGGGTTAGGGTTAGGG; assay: fluorescence titration (SPECFIT); details: Na+ (sodium cacodylate, I = 0.1 M); pH 7.0, 25 °C; site 1 of 2
Fibroblasts = assay: MTT cytotoxicity assay, normal human skin fibroblasts; format: cell-based; details: Fibroblast, 72 h incubation, ± SD
Experimental: (§1) Human cervical carcinoma HeLa (GIBCO BRL, Invitrogen, Waltham, MA, USA), human melanoma MDA-MB-435S and human ovarian adenocarcinoma SK-OV-3 (ATCC-LGC Standards GmbH, Wesel, Germany) cell lines were purchased from indicated cell culture banks. Normal human skin fibroblasts were isolated from the upper arm of a donor at the Neurochemical Laboratory, Department of Chemistry and Biochemistry, School of Medicine, University of Zagreb. HeLa, MDA-MB-435S and fibroblasts were grown in Dulbecco’s Modified Eagle’s Medium (DMEM; Sigma-Aldrich, St. Louis, MI, USA) while the SK-OV-3 cell line was grown in McCoy’s 5A medium (Capricorn Scientific, Ebsdorfergrund, Germany). All media were supplemented with 10% fetal bovine serum (FBS; Sigma-Aldrich) and 50 I.U./mL penicillin and 50 μg/mL streptomycin. Cells were cultured in a humidified atmosphere of 5% CO2 at 37 °C and were sub-cultured every 3–4 days. HeLa, MDA-MB-435S, SK-OV-3 cells and fibroblasts were seeded in 96 well plates. Twenty-four hours later the cells were treated, in quadruplicate, with different concentrations of compounds (dissolved in DMSO, kept at 4 °C and protected from light). Following 72 h of incubation at 37 °C, the medium was aspired and modified 3-(4,5-dimethylthiazol-2-yl)-2,5-diphenyltetrazolium bromide (MTT) assay was used to determine the cytotoxic effect of the tested compounds. Three hours later, formazan crystals were dissolved in DMSO (0.17 mL/well), the plates were mechanically agitated for 20 min and the optical density at 600 nm was determined on a microtiter plate reader (Awareness Technology Inc., Palm City, FL, USA). The experiments were repeated three times.

[2] = Solubility and aggregation (UV/Vis characterization); format: physicochemical; details: sodium cacodylate buffer, I = 0.05 mol dm^−3, pH = 7.0; UV/Vis
Experimental: The UV/vis spectra were recorded on a Varian Cary 100 Bio spectrophotometer (Agilent, Santa Clara, CA, USA), CD spectra on JASCO J815 spectrophotometer (ABL&E Handels GmbH, Wien, Austria) and fluorescence spectra on a Varian Cary Eclipse spectrophotometer (Agilent, Santa Clara, CA, USA) at 25 °C using appropriate 1 cm path quartz cuvettes.
Studied compounds, 1–6 were soluble (c = 8 × 10^−4 mol dm^−3) in DMSO. […] Therefore, the stock solution of 2 was prepared fresh before use. The experiments were done in aqueous buffer (sodium cacodylate buffer, I = 0.05 mol dm^−3; pH = 7.0).
However, the shape of UV/Vis spectra of cyanine 2 changed with increasing concentration (calibration experiment in Figure S2 in SI). In addition to the dominant maximum at 432 nm (which most likely corresponds to the monomer form of the dye), the absorption band at 413 nm becomes more intense (Figure S2 in SI). Presumably, it corresponds to the aggregated form (H-aggregate). Based on the existence of an absorption band at 432 nm, only the monomer dye form is visible at high temperature (95 °C) (Figure S8b in SI). However, after cooling the solution to 25 °C, an additional band appears at 413 nm, which corresponds to the aggregated dye form.

[3] = test system: Tel22 (DNA, G4) AGGGTTAGGGTTAGGGTTAGGG; assay: fluorescence titration; details: K+ (potassium phosphate, I = 0.1 M); pH 7.0, 25 °C; emission increase, no constant fitted
SK-OV-3 cells = assay: MTT cytotoxicity assay, SK-OV-3; format: cell-based; details: Homo sapiens, SK-OV-3, 72 h incubation, ± SD
Experimental: as §1

HeLa cells = assay: MTT cytotoxicity assay, HeLa; format: cell-based; details: Homo sapiens, 72 h incubation, ± SD
Experimental: as §1

MDA-MB-435S cells = assay: MTT cytotoxicity assay, MDA-MB-435S; format: cell-based; details: Homo sapiens, 72 h incubation, ± SD
Experimental: as §1

[4] = target: Tel22 (5′-AGGG(TTAGGG)3–3′) G-quadruplex; assay: Fluorimetric titration with Tel22 in sodium cacodylate buffer (Na+ solution); format: binding, human; details: Tel22, sodium cacodylate buffer, pH = 7.0, I = 0.1 mol dm^−3; SPECFIT fit of fluorescence titration
Experimental: (§2) Materials. Polynucleotides were purchased as noted: poly A–poly U, calf thymus ctDNA, poly(dAdT)2 and poly(dGdC)2 (Sigma-Aldrich, St. Louis, MI, USA). Polynucleotides were dissolved in Na-cacodylate buffer, I = 0.05 mol dm^−3, pH = 7.0. The calf thymus ctDNA was additionally sonicated and filtered through a […]. Polynucleotide concentration was determined spectroscopically as the concentration of phosphates. Spectrophotometric titrations were performed at pH = 7.0 (I = 0.05 mol dm^−3, sodium cacodylate buffer) by adding aliquots of polynucleotide solution into the solution of the studied compound for fluorimetric experiments and CD experiments were done by adding aliquots of the compound stock solution into the solution of a polynucleotide. In fluorimetric experiments, an excitation wavelength of λexc = 425, 431, 423, 427, 406 and 407 nm, respectively, was used to avoid the inner filter effect caused due to increasing absorbance of the polynucleotide. Emission was collected in the range λem = 400–700 nm. Values for Ka obtained by processing titration data using the Scatchard equation [27], all have satisfactory correlation coefficients (≥0.98).
(§3) Thermal melting curves for DNA, RNA and their complexes with studied compounds were determined as previously described by following the absorption change at 260 nm as a function of temperature. The absorbance of the ligands was subtracted from every curve and the absorbance scale was normalized. Tm values are the midpoints of the transition curves determined from the maximum of the first derivative and checked graphically by the tangent method. The ∆Tm values were calculated by subtracting Tm of the free nucleic acid from Tm of the complex. Every ∆Tm value here reported was the average of two measurements. The error in ∆Tm is ±0.5 °C. 5′-AGGG(TTAGGG)3–3′(Tel22) was obtained from IDT (Integrated DNA Technologies, Coralville, IA, USA). Tel22 was dissolved in 0.1 M either in sodium cacodylate or potassium phosphate buffer. The starting Tel22 oligonucleotide solution was first heated up to 95 °C for 10 min, then slowly cooled to 10 °C at the cooling rate of 1 °C/min to allow DNA oligonucleotide to adopt a G-quadruplex structure. The G-quadruplex structure was confirmed by thermal melting and CD spectra. The concentration of G quadruplex was expressed in terms of oligonucleotide structure. In fluorimetric titrations, aliquots of Tel 22 solution were added to the solution of ligands (c ~ 2 × 10^−7 M, in SI).
(§4) Binding constants (log Ka) and stoichiometry of complexes were calculated from the fluorimetric data using non-linear least-square program SPECFIT [46], in the concentration range that corresponded to 20–80% complex formed.

Tel22 G-quadruplex [5] = assay: Thermal melting of Tel22 in sodium cacodylate buffer; format: binding, human; details: Tel22, r = 1.0, sodium cacodylate buffer, pH = 7.0, I = 0.1 mol dm^−3; error ± 0.5 °C
Experimental: as §3

[6] = test system: Tel22 (DNA, G4) AGGGTTAGGGTTAGGGTTAGGG; assay: UV thermal melting, 260 nm; details: Na+ (sodium cacodylate, I = 0.1 M); pH 7.0; Tel22 2 µM, r = 1.0 (compound 2 µM)
Tel22 G-quadruplex [7] = assay: Thermal melting of Tel22 in potassium phosphate buffer; format: binding, human; details: Tel22, r = 1.0, potassium phosphate buffer, pH = 7.0, I = 0.1 mol dm^−3; error ±0.5 °C
Experimental: as §3

ds-DNA and ds-RNA = assay: Thermal melting of ds-DNA and ds-RNA; format: binding; details: r [compound]/[nucleotide phosphate] = 0.1
Experimental: as §3
Binding abilities of 1–6 compounds were further explored by thermal melting experiments. […]

[8] = target: Tel22 (5′-AGGG(TTAGGG)3–3′) G-quadruplex; assay: Fluorimetric titration with Tel22 in potassium phosphate buffer (K+ solution); format: binding, human; details: Tel22, K+ solution; no accurate fit possible
Experimental: as §2, §3, §4

| Compound | logKa1 [1] | IC50 (Fibroblasts) | Aggregation in aqueous buffer [2] | binding [3] | IC50 (SK-OV-3 cells) | melting point | IC50 (HeLa cells) | IC50 (MDA-MB-435S cells) | logKa1 (L + G ⇆ LG) [4] | logKa2 (LG + G ⇆ LG2) [4] | ∆Tm (Tel22 G-quadruplex [5]) | ∆Tm [6] | ∆Tm (Tel22 G-quadruplex [7]) | Effect on DNA/RNA thermal stability (ds-DNA and ds-RNA) | log Ka (indicated by steeper slope of titration curves) [8] |
| --- | --- | --- | --- | --- | --- | --- | --- | --- | --- | --- | --- | --- | --- | --- | --- |
| C[n+]1c(C=C2Sc3ccccc3N2CCCS(=O)(=O)[O-])[se]c2ccccc21 [Compound 1, 3-(2-((3-methylbenzo[d][1,3]selenazol-3-ium-2-yl)methylene)benzo[d]thiazol-3(2H)-yl)propane-1-sulfonate] | 6.93 ± 0.25 | > 40 µM | do not form aggregates | yes | 32.8 ± 1.09 µM | > 300 °C | 31.9 ± 1.14 µM | 18.5 ± 1.23 µM | 6.93 ± 0.25 | 5.69 ± 0.23 | 0 °C | 0 °C | – | – | – |
| C[n+]1c(/C=C2\Sc3ccccc3N2CCS)[se]c2ccccc21 [Compound 6, 2-((3-(2-mercaptoethyl)benzo[d]thiazol-2(3H)-ylidene)methyl)-3-methylbenzo[d][1,3]selenazol-3-ium methosulphate] | – | > 40 µM | significantly aggregate | – | > 40 µM | – | 30.7 ± 4.07 µM | 32.8 ± 3.76 µM | – | – | 2.0 °C | – | 6.9 °C | did not show any impact | ≥ 7 |
